Laboratory results published in patent US12648941B2, “Piperidine urea derivatives for use as inotropic agents” (Helsinn Healthcare SA, priority 2021, dated 2026).
Entries after “also recorded” stand apart in the source; their conditions may differ.

Legend:
[1] = test system: cardiomyocytes isolated from hearts of SHAM mice; experiment: Cardiomyocyte contractility (fractional shortening, % FS), SHAM cardiomyocytes; assay type: cell-based, mouse
Description: (§1) Cardiomyocytes were isolated freshly from cardiac ventricles separately from SHAM and HF mice following the protocol developed by the Alliance for Cellular Signalling (AfCS Procedure Protocol ID PP00000125). From each of the 5 SHAM and 3 HF hearts a cell suspension was made and divided into 10 aliquots each, for a total of 50 aliquots from SHAM and 30 aliquots from HF hearts. These aliquots were treated with vehicle, AC01/HM01 or D-Lys3-GHPR-6+AC01/HM01 as stated and used for the subsequent physiological and biochemical experiments.
AC01/HM01 was suspended in phosphate buffer saline solution (PBS: in mM: NaCl 137, KCl 7, Na2HPO4 10, KH2PO4 […]) and diluted to obtain 3 different concentrations: 0.2, 0.5 or 1 μM in Tyrode solution. We used a concentration range within 0.2-1 μM to ensure that the receptor was activated. […] Prior to contractility and Ca^2+ signaling measurements and biochemical assays, cardiomyocyte suspensions from SHAM and HF hearts were randomized to 3 types of treatments: vehicle, AC01/HM01, or D-Lys3-GHPR-6+AC01/HM01. The treatment with different agents occurred for 15 minutes at room temperature. Some cell suspension aliquots were flash frozen in liquid N2 and stored at −80° C. for later biochemistry analyses. All the experiments were conducted blinded regarding the treatment of cardiomyocytes.
Fresh isolated cardiomyocytes were aliquoted in 1.5 mL tubes and incubated with a cell permeable form of the fluorescent Ca^2+ indicator Fluo-3 AM for approximately 20 minutes followed by washing for >5 min. The cells were plated on laminin coated glass bottom dishes (35 mm, Mattek, Ashland, MA, USA), and then mounted in a custom built perfusion/stimulation chamber. Cells were continuously perfused with O2/CO2 (95/5%) bubbled Tyrode solution with the following composition (in mM): NaCl 121, KCl 5.0, CaCl2 1.8, MgCl2 0.5, NaH2PO4 0.4, NaHCO3 24, EDTA 0.1, glucose 5.5, which represents the vehicle solution.
15 aliquots of cardiomyocyte suspension from SHAM and 9 aliquots from HF were randomized to different treatments: vehicle, AC01/HM01 (0.2, 0.5 or 1 μM) or pretreatment with D-Lys3-GHPR-6 (3 μM) followed by AC01/HM01 (1 μM). The cardiomyocytes were electrically stimulated to contract at 1 Hz with supra-threshold voltage using two platinum electrodes attached to the perfusion/stimulation chamber.
(§2) Line scan fluorescence images were acquired using a confocal microscope (Biorad; 40× oil immersion lenses). […] ImageJ software (open source software developed by NIH, Bethesda, USA) was used to quantify changes in fluorescence (Ca^2+ transients) and contractility of single cardiomyocytes.
(§3) The contractility of cardiomyocytes was measured as the percent of length shortening (fractional shortening; % FS). […]

[2] = Phase 1 SAD, safety and tolerability; assay type: in vivo, human
Description: Single-center, randomized, double-blind, placebo-controlled, single ascending dose (SAD) study. Screening examinations were performed within 28 days prior to dosing. Eligible subjects returned to the study center in the morning of Day-1 and remained in-patient until discharge at 72 hours after dosing (morning of Day 4) if there were no safety issues. The oral dose was administered in the morning of Day 1. Subjects returned to the clinic 7 days after treatment, in the morning of Day 8 (±1 day), for the safety assessments. Adverse events (AEs), vital signs (blood pressure, pulse rate and body temperature), 12-lead ECG, Holter-ECG, physical examination (PE), and laboratory tests (hematology, clinical chemistry, and urinalysis) assessed during screening and several times throughout the study.

[3] = test system: cardiomyocytes isolated from hearts of heart failure (HF) mice; experiment: Cardiomyocyte contractility (fractional shortening, % FS), heart failure (MI) cardiomyocytes; assay type: cell-based, mouse; conditions: 1 μM
Description: as §1
AC01/HM01 was suspended in phosphate buffer saline solution (PBS: in mM: NaCl 137, KCl 7, Na2HPO4 10, KH2PO4 […]) and diluted to obtain 3 different concentrations: 0.2, 0.5 or 1 μM in Tyrode solution. We used a concentration range within 0.2-1 μM to ensure that the receptor was activated. […]
as §2, §3

Question: What does the source list for `COc1ccc([C@H](C)NC(=O)N(C)[C@@H]2CCN(C)CC2(C)C)c(Cl)c1Cl.Cl` [AC01/HM01, 1-[(1S)-1-(2,3-dichloro-4-methoxyphenyl)ethyl]-3-methyl-3-[(4R)-1-methyl-3,3-dimethyl-4-piperidyl]-urea]?
Answer: contractility, fractional shortening (FS %) vs vehicle ([1]; 0.5 μM): considerable and statistically significant response; contractility, fractional shortening (FS %) vs vehicle ([1]; 1 μM): considerable and statistically significant response; also recorded: significant increase of contractility; also recorded: greatest contractile effect compared to vehicle; also recorded: positively responded; contractility, length fractional shortening (FS %), concentration dependence ([1]; 0.2, 0.5 and 1 μM vs vehicle, 1 Hz stimulation): increased in a dose-dependent manner; also recorded: dose-dependent increase; TEAEs reported ([2]; 0.1 mg): no TEAEs; number of TEAEs ([2]; 0.3 mg): 5 TEAEs; number of TEAEs ([2]; 1.0 mg): 7 TEAEs; subjects reporting TEAEs of moderate intensity ([2]; 1.0 mg, hot flush): 1 subject; number of TEAEs ([2]; 10 mg): 19 TEAEs; subjects reporting TEAEs of moderate intensity ([2]; 10 mg, sinus bradycardia): 1 subject; number of subjects reporting TEAEs and number of TEAEs, dose dependence ([2]; 0.1-10 mg single oral dose): increased dose-dependently; mean systolic and diastolic blood pressure and body temperature ([2]; after dosing / between treatment groups): no clinically relevant changes; intensity of TEAEs ([2]; all dose groups): Most TEAEs were of mild intensity; laboratory parameters, differences between dosing groups ([2]; in vivo): no clinically relevant differences; most frequently reported TEAEs ([2]; started mainly shortly after dosing, short duration): nervous system disorder (mainly headache) and cardiac disorders (mainly sinus bradycardia); contractility, fractional shortening (FS %) vs vehicle [3]: significant increase of contractility; also recorded: positively responded
